Data taken from patent US12208105B2, “Methods for attenuating graft-versus-host disease and opportunistic infections” (priority 2018, dated 2025).

What was measured:
Epstein Barr virus (EBV) = assay type: cell-based, human
TNF and IFN-γ = assay: Organ inflammatory cytokines by ELISA after HSCT; settings: day +14
Experimental: (A, B) B6D2 mice were lethally irradiated on transplant day −1. On day 0 recipients were administered 3×10^6 TCD B6 BM cells +/−4×10^6 B6 Tcons. Donor TCD BM cells, donor Tcons, both cell populations, or neither were incubated ex vivo with cosalane at 15 μg/ml for one hour prior to transplant. Those cells not treated with cosalane were incubated with an equal volume of DMSO vehicle. Mice were then followed for survival and scored for aGVHD. N=2 BM only. N=5 for all other treatment groups. […] (C, D) B6D2 mice were lethally irradiated on transplant day −1. On day 0 recipients were administered 3×10^6 TCD eGFP^− B6 BM cells plus 4×10^6 eGFP^+ B6 Tcons. Donor Tcons were incubated ex vivo with DMSO vehicle or cosalane diluted in normal saline at 15 μg/ml. The cells were then mixed with untreated TCD B6 BM cells and administered immediately to recipient mice by tail vein injection. Recipient mice were subsequently killed on day +7 (C) or day +14 (D). Lymphoid organs (left panels) and aGVHD target organs (right panels) were subsequently harvested and homogenized. Total eGFP levels were then determined using an anti-eGFP ELISA. N=7 per treatment group. […] (E, F) B6D2 mice were transplanted as in (C, D) and their organs removed and homogenized on day +7 (E) or day +14 (F). Total IFN-y (left panels) and TNF (right panels) was then determined by ELISA. N=7 per treatment group.

[1] = cited from earlier work
CCR1 = molecular target: T1, CCR1 (Homo sapiens, UniProt P32246); settings: cited from earlier work
T1 sequence (P32246 1-355): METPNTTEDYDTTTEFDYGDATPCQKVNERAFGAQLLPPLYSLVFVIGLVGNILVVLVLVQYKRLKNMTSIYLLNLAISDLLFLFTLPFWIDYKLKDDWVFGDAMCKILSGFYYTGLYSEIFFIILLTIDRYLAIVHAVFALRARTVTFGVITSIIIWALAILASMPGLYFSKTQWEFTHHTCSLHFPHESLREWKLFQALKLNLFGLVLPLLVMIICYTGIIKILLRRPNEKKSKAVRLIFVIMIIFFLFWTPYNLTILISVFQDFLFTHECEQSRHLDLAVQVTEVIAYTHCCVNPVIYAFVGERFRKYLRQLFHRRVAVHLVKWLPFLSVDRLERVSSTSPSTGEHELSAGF

[2] = tested on: donor (eGFP+) cells in the spleen; assay: Donor engraftment in host spleen by flow cytometry; assay type: in vivo, mouse; settings: whole stem cell product incubated 15 μg/ml, transplant day +10
Experimental: Purified Tcons and TCD BM cells were obtained from B6 donors transgenic for enhanced green fluorescent protein (eGFP^+) and were mixed together prior to being incubated with cosalane or DMSO. The cells were subsequently administered to irradiated B6D2 recipients and both bone marrow and Tcon engraftment then determined by flow cytometry within the host spleen on transplant day +10. Donor derived cells were distinguished from residual host cells by virtue of their eGFP positivity.

CCR7 = molecular target: T2, CCR7 (Homo sapiens, UniProt P32248); assay: Trans-well chemotaxis assay, human H9 cells; assay type: cell-based; parameters: confirm that hits identified in the HTS were active against native CCR7; endogenous in cells; host or cells: H9 cells (human cutaneous T cell lymphoma line)
T2 sequence (P32248 25-378): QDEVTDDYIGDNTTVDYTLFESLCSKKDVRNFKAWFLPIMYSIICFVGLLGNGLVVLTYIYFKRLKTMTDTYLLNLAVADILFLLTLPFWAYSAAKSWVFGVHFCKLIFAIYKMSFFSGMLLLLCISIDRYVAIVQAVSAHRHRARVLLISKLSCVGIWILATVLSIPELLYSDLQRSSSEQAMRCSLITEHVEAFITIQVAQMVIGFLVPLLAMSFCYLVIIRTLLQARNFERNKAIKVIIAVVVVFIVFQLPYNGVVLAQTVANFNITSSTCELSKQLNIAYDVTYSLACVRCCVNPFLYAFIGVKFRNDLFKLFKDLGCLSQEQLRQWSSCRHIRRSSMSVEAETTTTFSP
Experimental: FIGS. 1A-1D show cosalane impairs CCR7 driven human and murine chemotaxis. (A, B) Chemotaxis media with or without CCL19 (A) or CCL21 (B) was added to the lower chambers of the chemotaxis device. Previously untreated H9 cells were then placed in the upper chambers of the device with or without cosalane at a concentration of 2 μM. The chamber was then placed at 37° C. for 3.5 hours and total H9 migration from each upper to lower chamber determined. (A) *P=0.048 for comparison between H9 cells/30 nM CCL19 and H9 cells/30 nM CCL19/2 μM cosalane by Student's t test. (B) P>0.05 for comparison between H9 cells/200 nM CCL21 and H9 cells/200 nM CCL21/2 μM cosalane. (C, D) Chemotaxis media with or without CCL19 (C) or CCL21 (D) was added to the lower chambers of the chemotaxis device. Previously untreated primary murine T cells were then placed in the upper chambers of the device with or without cosalane at a concentration of 2 μM. Total T cell migration from each upper to lower chamber was then determined. (C) *P=0.029. (D) *P<0.001.
While useful from a screening perspective, our primary reporter assays for the HTS were not physiologic. As a result, it was important to confirm that hits identified in the HTS were active against native CCR7 and could block an actual function mediated by the receptor. For this, we used a well-described trans-well chemotaxis assay system using human H9 cells, a cutaneous T cell lymphoma line known to express high levels of CCR7 and to migrate in response to its ligands (Ott et al., J. Pharmacol. Toxicol. Meth. 51:105 (2005)). In addition, we utilized primary mouse, naïve (CD25^neg) T cells obtained from C57BL/6 mice. As depicted in FIG. 1A, human H9 cells placed in the upper chambers of the chemotaxis device readily migrated through the separating membrane when CCL19 was present in the lower chamber. […] Similarly, murine T cell chemotaxis was also impaired by cosalane in response to both CCL19 and CCL21 (FIGS. 1C-1D).
To evaluate this possibility, human H9 cells were incubated with 10 mcg/ml (13 μM) of cosalane versus DMSO vehicle for one hour and then washed free of the compound. The cells were then placed into the chemotaxis chamber as was done in FIGS. 1A-1D. […] Similar experiments were performed with naïve primary mouse T cells.

Cytotoxicity (Table 1) = assay type: cell-based
From the text: Perhaps the most important goal of HSCT research is to separate the beneficial anti-tumor effects mediated by donor T cells from the deleterious GVHD responses that they are also capable of producing. […] Unfortunately, there were no drugs or therapeutic antibodies available for clinical use. As a result, we pursued our high throughput screening (HTS) effort to identify novel small molecule antagonists with anti-CCR7 activity. The initial drug discovery process identified cosalane as a CCR7 antagonist. A substantial amount of work has subsequently been done with the compound in an effort to prevent acute graft-versus-host disease in mouse bone marrow transplant models.

[3] = 10 mcg/ml (13 μM) one hour, then washed

CC(C)CCC[C@@H](C)[C@H]1CC[C@H]2[C@@H]3CC[C@H]4C[C@@H](CCC=C(c5cc(Cl)c(O)c(C(=O)O)c5)c5cc(Cl)c(O)c(C(=O)O)c5)CC[C@]4(C)[C@H]3CC[C@]12C [Cosalane, cosalane]
EBV infection, isolated pretreatment of target cells (Epstein Barr virus (EBV); 20 μg/ml pretreatment one hour, washed): reduced viral infection to a significant degree
EBV infectivity, compound present throughout (Epstein Barr virus (EBV); 20 μg/ml, Raji cells, 48 hours): significantly limited EBV infectivity
TNF and IFN-γ levels in the host colon (TNF and IFN-γ): significantly reduced
tissue accumulation ([1]; administered intravenously): propensity to accumulate within the liver
oral bioavailability ([1]; in vivo, po): very poor oral bioavailability
CCR1 dependent chemotaxis in response to CCL3 and CCL4 (CCR1): inactive
CCR1 dependent chemotaxis in response to CCL5 (CCR1): blocked
donor cell numbers in the spleen [2]: did not produce any differences in donor monocyte, neutrophil, T cell, or B cell numbers
H9 cell migration in response to CCL19 (CCR7; 2 μM cosalane in upper chamber, 30 nM CCL19, 3.5 hours, vs DMSO): inhibited versus DMSO
H9 cell CCL21 driven chemotaxis (CCR7; 2 μM cosalane in upper chamber, 200 nM CCL21): reduced by cosalane, although this did not achieve statistical significance
H9 chemotaxis in response to CCL19 after pretreatment alone (CCR7; [3]): significantly reduced
H9 chemotaxis in response to CCL21 after pretreatment alone (CCR7; [3]): significantly reduced
Cytotoxicity (Cytotoxicity (Table 1)): >50 (non-toxic) μM
